Consider 6 compounds from PMC7006816, “Human β-Defensin 2 Mediated Immune Modulation as Treatment for Experimental Colitis” (Frontiers in Immunology, 2020).

Where no end group is shown, it is not given here.

The subject of one data set is CD patients. The note with it: clinical trial; cited from earlier work. The source says: Despite ongoing development of therapeutic approaches, new treatment strategies for the management of IBD are still urgently needed. Corticosteroids remain the standard therapeutic options for active CD and UC. However, their beneficial effects are associated with severe side effects such as osteoporosis, moon face, mood disturbances, glaucoma, and hypertension ([47]). In recent years, several new therapeutics targeting the molecular mechanisms of intestinal and systemic inflammation have been developed. Among these, anti-TNFα antibodies have been the most successful and most commonly used bio ...

In a further data set the test system is mice with DSS colitis. The note with it: rectally applied; cited from earlier work.
For data set [1], the system named is murine BM-DC's. Nature of the data set: Flow cytometry of BM-DCs (p-NF-κB, p-CREB, MHCII, CD86). The format is cell-based, mouse. The conditions noted are these: RS504393 prior to LPS + hBD2; n = 6. The protocol: (§1) BM-DC's were generated using granulocyte-macrophage colony-stimulating factor (GM-CSF) and RPMI-1640 medium (Merck) supplemented with 10% fetal calf serum (FBS; Life Technologies), 2 mM glutamine (Thermo Fisher), 100 U/ml penicillin/streptomycin (Gibco), 50 μM 2-mercaptoethanol (Roth), 1 mM sodium pyruvate (Biochrome), and 1x non-essential amino acids (Biochrome) as previously described ([28]). Shortly, 2 × 10^6 bone marrow cells flushed from the tibias and femurs of C57BL/6 mice were seeded in dishes containing 200 U/ml GM-CSF. After 3 days extra medium containing GM-CSF was added to the cells and on day 6 half of the medium was replaced by fresh […] containing GM-CSF. After 7 or 8 days slightly attached cells were harvested. Female C57BL/6JolaHsd mice were purchased from Janvier (St. Berthevin Cedex, France). Animal experiments were performed in strict accordance with the German regulations of the Society for Laboratory Animal Science (GV-SOLAS) and the European Health Law of the Federation of Laboratory Animal Science Associations (FELASA). The protocol was approved by the Regierungspräsidium Tübingen (Anzeige 09.01.2014).
2 × 10^5 murine BM-DC's were seeded in 96-well round bottom plates and treated as described above. Cells were removed from the plate using Accutase (Sigma-Aldrich) and stained for 20 min at room temperature with Zombie Aqua (Biolegend) to exclude dead cells and extracellular antibodies against CD11c-APC (N418) (Miltenyi), MHCII-FITC (M5/114.15.2) (Miltenyi) and CD86-BV421 (GL-1) (Biolegend). For p-CREB staining cells were fixed and permeabilized with Foxp3 Staining Buffer Set (eBioscience) and stained with primary antibody phosphor-CREB mAb (Ser133; clone 87G3) (Cell Signaling) for 30 min in the dark at room temperature followed by secondary goat anti-rabbit IgG-DyLight™649 (Jackson ImmunoResearch) for 15 min at 4°C. To detect intracellular p-NF-κB BM-DCs were fixed with 2% paraformaldehyde (VWR) in PBS, permeabilized with 90% freezing methanol (Applichem) and stained with the primary antibodies to phosphor-NF-κB p65 (93H1) (Cell Signaling) for 60 min in the dark at room temperature followed by goat anti-rabbit IgG-PE-Cy7 (Santa Cruz Biotechnology) for 15 min at 4°C. PBS with 0,5% bovine serum albumin (Biomol) was used for all incubations and washing steps. At least 50,000 cells were acquired using a Canto-II flow cytometer (BD […]) with DIVA software (BD Biosciences) and were further analyzed using FlowJo 10.5 software (Tree Star).

In data set [2] the test system is murine BM-DC's. Briefly: Cytokine production by murine BM-DC's. The format is cell-based, mouse. The protocol:
as §1
2 × 10^5 murine BM-DC's or human Mo-DC's were seeded in 96-well round bottom plates. First they were pretreated with 100 ng/ml pertussis toxin (Sigma-Aldrich) or 5 μM of the CCR2 inhibitor RS 504393 (Tocris) and subsequently stimulated with 100 ng/ml LPS or 0.2 […] and 10 μg/ml or 100 μg/ml hBD2. 24 h later supernatants were collected and TNF-α [Biolegend (BM-DC's); R&D (Mo-DC's)] was analyzed according to the manufacturer's instructions. IL-10, IL-12, and IL-1β (LEGENDplex Biolegend) was as well-analyzed according to the manufacturer's instructions.

Data set [3] deals with human dendritic cells and keratinocytes. The note with it: cited from earlier work. The text has this: Herein we report that hBD2 can be used as a systemically administered anti-inflammatory biological. hBD2 is well-tolerated, both in vitro, and in vivo. […] After su ...
For data set [4], the system named is SCID mice with CD4+/CD25− T cell transfer colitis. Briefly: T cell transfer colitis model. The format is in vivo, mouse. How it is done: This study was performed by the Department of Biomedical Science at the University of Catania according to directive 86/609 EEC and approved by Novozymes science ethics committee. 8 weeks old female BALB/c and C.B-17 female SCID mice were purchased from Harlan (Italy). Colitis was induced in severe combined immunodeficiency (SCID) mice by transplantation of CD4^+/CD25^− T cells from the BALB/c mice. Briefly, lymphomonocytes isolated from spleen or lymph nodes from BALB/c mice were subjected to negative selection of CD4^+ T cells. Afterwards, CD4^+/CD25^+ cells were positively isolated by binding to the beads from the CD4^+ T cell suspensions and the CD4^+/CD25^− were collected from supernatant. […] CD4^+/CD25^− cells were intraperitoneally injected to SCID mice at a concentration of 500,000 cells in a final volume of 0.2 ml RPMI 1640. Sham treated animals (n = 6) received 0.2 ml pure RPMI 1640. Diseased mice were randomized divided into 4 groups (n = 11) and treated once daily by s.c. application of PBS (vehicle), hBD2 (0.1 and 1 mg/kg, respectively) or 0.3 mg/kg Dexamethasone (Dexa., applied intraperitoneally). Treatments started 7 days post T cell transfer and continued daily for 86 days. Animals were weighed three times a week and monitored twice a week starting from day 42 for the clinical status, summarized as DAI. The DAI included body weight loss, stool consistency, and the presence of blood at the rectum. One animal in the vehicle and one in the Dexamethasone treated groups had to be sacrificed before the end of the study. At the end of the study, animals were sacrificed and the colon was removed and carefully cleaned for further analysis. First, the colon was weighed then a section from the middle was removed and fixed for pathologic survey. The rest of the colon (5 cm) was used to quantify the activity of myeloperoxidase in the tissue.
Myeloperoxidase activity was performed on 5 cm of colon previously frozen at −80°C. Colon was homogenized in 0.5% of HETAB dissolved in 10 mM of Phosphate-Citrate Buffer (pH 7.0) to enable the release of MPO enzyme from the neutrophil granules. Homogenated samples after three freeze-thaw cycles were spun at 3,000 × g at 4°C for 30 min. Pellets were resuspended in 0.5% HETAB in 10 mM Phosphate-Citrate Buffer and spun again at 3,000 × g at 4°C for 30 min. 500 ul of supernatant were delivered into a vial along with 500 ul of TMB in Phosphate-Citrate Buffer containing Perborate Sodium. Changes in absorbance at 620 and 450 nm were read by a spectrophotometer (IRIS). Peroxidase enzyme diluted in 0.5% HETAB in 10 mM Phosphate-Citrate Buffer and H2O was used as standard. Two-fold dilutions of standard were prepared at the highest concentration of 50 pg/ml. Reagents and samples were kept refrigerated. Substrate solution was prepared just before the assay. MPO activity expresses the amount of enzyme that is able to degrade […] of peroxide/min and it is expressed as U/g tissue weight.
Sections of the colon were taken from each animal and preserved in neutral buffered formaline for subsequent histological analysis. Sections were stained using haematoxylin and eosin for further scoring.

Setting [5] is: Dexamethasone 0.3 mg/kg i.p. daily, n = 10.

As to Secukinumab, the “Disease course in CD patients” value in the data set with CD patients is recorded as “worsened the disease”.
On to porcine β-defensin 2 [pBD2], for which, in the data set on mice with DSS colitis, the “Mucosal injury and epithelial barrier in DSS colitis” value is “protective against mucosal injury and disruption of the epithelial barrier”.
Regarding `Cc1ccc2c(c1)C1(CCN(CCc3nc(-c4ccccc4)oc3C)CC1)OC(=O)N2` [RS504393, RS 504393, reference compound], in the data set on murine BM-DC's [1], the “Effect of pre-treatment on hBD2-mediated change of CREB phosphorylation” value is “prevented the increase in CREB phosphorylation”; the “Effect of pre-treatment on hBD2-mediated change of MHCII and CD86 expression” value was “prevented this lower expression”; the “Effect of pre-treatment on hBD2-mediated change of NF-κB phosphorylation” value is recorded as “prevented the hBD2-mediated reductions in NF-κB activation”. In the data set with murine BM-DC's [2] (5 μM RS504393 before LPS and hBD2), the “Effect of pre-treatment on hBD2 modulation of cytokine secretion” value is recorded as “prevented the anti-inflammatory effect of hBD2”.
“hBD3: defensin named only as hBD3, cited for cytotoxicity in contrast to hBD2 (GIINTLQKYYCRVRGGRCAVLSCLPKEEQIGKCSTRGRKCCRRKK; ends and bridges not checked; cysteine pairing not given here; UniProt P81534 23-67, looked up)”: the Cytotoxic effects result in data set [3] is listed as “demonstrated cytotoxic effects”.
In the case of `C[C@@H]1C[C@H]2[C@@H]3CCC4=CC(=O)C=C[C@]4(C)[C@@]3(F)[C@@H](O)C[C@]2(C)[C@@]1(O)C(=O)CO` [dexamethasone, Dexamethasone, reference compound], the “Histological analysis of colon” value in data set [4] (Dexamethasone 0.3 mg/kg i.p. daily) was “Less signs of inflammation”. Besides, the “Efficacy compared with hBD2” value in data set [4] (Dexamethasone 0.3 mg/kg i.p. daily vs hBD2 s.c.) is given as “superior to hBD2 in the T cell transfer model”. In addition, in data set [4] (setting [5]), the Colon weight result was “improved DAI, stool score and colon weight significantly”; the DAI result was “improved DAI, stool score and colon weight significantly”; the Stool score result is “improved DAI, stool score and colon weight significantly”.
Consider pertussis toxin [reference compound], for which the “Effect of pre-treatment on hBD2 modulation of TNF-α, IL-1β, IL-10, IL-12p70 secretion” value with murine BM-DC's [2] (100 ng/ml pertussis toxin before LPS and hBD2) is “prevented the observed immunomodulatory capacity of hBD2”.
